From patent US6093714A, “Tricyclic benzazepine compounds” (priority 1995, dated 2000)
Where a name gives a salt, the structure may show the parent alone. Read-outs that look alike come from different tables or passages of the source.

Assays:
intraperitoneal cells = experiment: Histamine release reaction inhibition test (rat intraperitoneal cells, DNP-As antigen); type: cell-based, Wistar male rat; conditions: 10^-5 to 10^-10 M test compound, DNP-As stimulated intraperitoneal cells, 10^5 cells/ml, read-out: IC50 (dose of the test compound required for inhibiting the histamine release reaction by 50%)
Protocol: Histamine release reaction inhibition test
(1) Preparation of antiserum
Rat anti-dinitrophenylated ascaris protein (hereinafter referred to as "DNP-As") serum was prepared according to the method established by Tada et al. (Tada, T. and Okumura, K., J. Immun. 106(4), 1971). Specifically, 1010 organisms of Bordetella pertussis and 1 mg of DNP-As were intramuscularly administered to the foot pad of the limbs of Brown norway male rats weighing 200 g, and, five days after the administration, 0.5 mg of DNP-As was intramuscularly administered to the back. Three days after that, blood was collected to prepare an antiserum. The titer of the antiserum was determined by using a 48-hr passive cutaneous anaphylaxis reaction using a rat and found to be 1:1000 to 1:2000.
(2) Induction of histamine release reaction and release reaction inhibitory activity
The above serum was diluted four times with physiological brine, and 1 ml of the diluted serum was intraperitoneally administered to a Wistar male rat. Two days after the administration, the abdominal cavity was washed with phosphate buffer, and intraperitoneal cells were collected. The cells were adjusted to 10^5 cells/ml and stimulated with 1 pg/ml DNP-As, and the amount of the histamine released on the supernatant was measured by the method established by Shore et al (Shore, P. A., Burkhalter, A. H. and Chon Jr. V. H. J. Pharm. Exp. Ther., 127 , 182-186 (1959)).
The amount of the released histamine treated with 10^-5 to 10^-10 M test compound was compared with that of non-treated group. The dose of the test compound required for inhibiting the histamine release reaction by 50% (IC50) was calculated based on the percentage inhibition. IC50 of sodium cromoglicate was used as a control.

[1] = tested on: allergic foot-pad edema reaction; experiment: Immediate and late phase allergic response inhibition test (allergic foot-pad edema reaction); type: in vivo, Wister male rats; conditions: Rattus norvegicus; for inhibition in vivo at 20 mg/kg: po, 20 mg/kg orally, 10 min before induction
Protocol: Immediate and late phase allergic response inhibition test
Wister male rats weighing of 200 g were provided. 1010 organisms of Bordetella pertussis and 1 mg of dinitrophenylated ovalbumin (hereinafter abbreviated to "DNP-OA") were intramuscularly administered into the foot pad of the limbs of the rats except for the right hind leg. Further, ten days after the administration, 5 pg/site DNP-OA was subcutaneously administered to the right hind leg to induce allergic foot-pad edema reaction. The inhibitory activity of the test compounds was determined in such a manner that the volume of edema 30 min after the induction of the allergic reaction was regarded as an immediate phase allergic response and the volume of edema 8 hr after the induction of the allergic reaction was regarded as a late phase allergic response. Each test compound was dissolved or suspended in a 0.25% Tween 80 solution, and the solution or suspension was orally administered at a dose of 20 mg/kg 10 min before the induction of the allergic reaction.
Only the 0.25% Tween 80 solution was administered to the control group of rats not treated with any test compound, and 100 mg/kg sodium cromoglicate was subcutaneously or orally administered to the positive control group of rats.
The percentage inhibition of the allergic foot-pad edema reaction was determined by the following equation.
Percentage inhibition of allergic foot-pad edema reaction=(A-B)/A×100
wherein A: average edema volume for the non-treated control group of rats; and
B: average edema volume for the group of rats with the test compound administered.

[2] = cited from earlier work
[3] = 0.5 h, edema 30 min after induction, read-out: Inhibition (%) Immediate phase response
[4] = edema 8 hr after induction, read-out: Inhibition (%) Late phase response

## COc1cc2[nH]c(=O)c3nn[nH]c3c(=O)c2cc1OC(C)C [Example 23, 8-Isopropoxy-7-methoxy-4(5H),10-dioxo-1H-1,2,3-triazolo[4,5-c][1]benzazepine]
Intraperitoneal cells
  IC50: 2.4 nM
[1]; [3]
  inhibition in vivo at 20 mg/kg: 71%
[1]; [4]
  inhibition in vivo at 20 mg/kg: 56%

## CC(C)Oc1cc2[nH]c(=O)c3nn[nH]c3c(=O)c2cc1OC(C)C [Example 25, 7,8-diisopropoxy-4(5H),10-dioxo-1H-1,2,3-triazolo[4,5-c][1]benzazepine]
Intraperitoneal cells
  IC50: 4.9 nM
[1]; [3]
  inhibition in vivo at 20 mg/kg: 59%
[1]; [4]
  inhibition in vivo at 20 mg/kg: 38%

## O=c1[nH]c2cc3c(cc2c(=O)c2[nH]nnc12)OCO3 [Example 26, 7,8-Methylenedioxy-4(5H),10-dioxo-1H-1,2,3-triazolo[4,5-c][1]benzazepine]
Intraperitoneal cells
  IC50: 69 nM
[1]; [3]
  inhibition in vivo at 20 mg/kg: 43%
[1]; [4]
  inhibition in vivo at 20 mg/kg: 29%

## Cc1cc2[nH]c(=O)c3nn[nH]c3c(=O)c2cc1O [Example 28, 8-Hydroxy-7-methyl-4(5H),10-dioxo-1H-1,2,3-triazolo[4,5-c][1]benzazepine]
Intraperitoneal cells
  IC50: 12 nM
[1]; [3]
  inhibition in vivo at 20 mg/kg: 51%
[1]; [4]
  inhibition in vivo at 20 mg/kg: 48%

## COc1cc2c(=O)c3[nH]nnc3c(=O)[nH]c2c(OC)c1OC [Example 30, 6,7,8-Trimethoxy-4(5H),10-dioxo-1H-1,2,3-triazolo[4,5-c][1]benzazepine]
Intraperitoneal cells
  IC50: 8.7 nM
[1]; [3]
  inhibition in vivo at 20 mg/kg: 58%
[1]; [4]
  inhibition in vivo at 20 mg/kg: 51%

## Cc1cccc(/C=C/c2ccc3c(=O)c4[nH]nnc4c(=O)[nH]c3c2)n1 [Example 32, (E)-7-(2-(6-Methyl-2-pyridyl)-(E)-ethenyl)-4(5H),10-dioxo-1H-1,2,3-triazolo[4,5-c][1]benzazepine trifluoroacetate]
Intraperitoneal cells
  IC50: 1.2 nM
[1]; [3]
  inhibition in vivo at 20 mg/kg: 55%
[1]; [4]
  inhibition in vivo at 20 mg/kg: 43%

## O=c1[nH]c2cc(C(F)(F)F)ccc2c(=O)c2[nH]nnc12 [Example 34, 7-Trifluoromethyl-4(5H),10-dioxo-1H-1,2,3-triazolo[4,5-c][1]benzazepine]
Intraperitoneal cells
  IC50: 5.3 nM
[1]; [3]
  inhibition in vivo at 20 mg/kg: 66%
[1]; [4]
  inhibition in vivo at 20 mg/kg: 59%

## O=C(O)c1cc(=O)c2c(OCC(O)COc3cccc4oc(C(=O)O)cc(=O)c34)cccc2o1 [Sodium cromoglicate, reference compound]
Intraperitoneal cells
  IC50: 1800 nM
[1]; 0.5 h, oral administration, edema 30 min after induction, read-out: Inhibition (%) Immediate phase response
  inhibition in vivo at 100 mg/kg: 16%
[1]; sc, 0.5 h, subcutaneous administration, edema 30 min after induction, read-out: Inhibition (%) Immediate phase response
  inhibition in vivo at 100 mg/kg: 75%
[1]; sc, subcutaneous administration, edema 8 hr after induction, read-out: Inhibition (%) Late phase response
  inhibition in vivo at 100 mg/kg: 53%
[1]; oral administration, edema 8 hr after induction, read-out: Inhibition (%) Late phase response
  inhibition in vivo at 100 mg/kg: 20%
[2]
  oral absorption: poor oral absorption
